Assay results taken from ChEMBL document CHEMBL5230122, “Natural products and other inhibitors of F1FO ATP synthase” (Eur J Med Chem, 2020).
≈ marks a conversion by molar mass, not a printed value. Numbered stars: 1 amine (or outer) side, 2 acyl side, 3 side chain; on linkers, the order of the positions; unused ones are H or OH. Square brackets hold non-standard residues; d marks the D form. Peptide text beside a SMILES is read from it. * marks the point of attachment. X2 = CCC(=O)C[C@H](O)C[C@@H](C)C[C@H](N[*:1])C(=O)[*:2]; Leu(3R-OH) = CC(C)[C@@H](O)[C@H](N)C(=O)O; NH((S)CH(Me)CH2NMe2) = C[C@@H](CN(C)C)N*; X4 = CC(C)C[C@@H](C[N+]1=C2CCCN2CCC1)N*; Pro(4S-Me) = C[C@@H]1CN[C@H](C(=O)O)C1; X1 = CC[C@@H](C)/C=C/C(=O)*; Pip = O=C(O)[C@@H]1CCCCN1; Iva = CC[C@](C)(N)C(=O)O; Aib = CC(C)(N)C(=O)O; βAla = NCCC(=O)O

Legend:
[1] = Inhibition of bovine heart mitochondrial F0F1-ATP synthase assessed as rate of NADH oxidation in presence of NADH for 30 mins by colorimetric assay; type: mitochondria, Bos taurus, Mitochondria
HeLa = assay: Cytotoxicity against human HeLa cells assessed as reduction in cell viability; type: functional, cell-based
HL-60 = assay: Cytotoxicity against human HL-60 cells assessed as reduction in cell viability; type: functional, cell-based
NCI-H292 = assay: Anticancer activity against human NCI-H292 cells assessed as reduction in cell proliferation incubated for 48 hrs by Calcein AM and Pluronic F-127 staining based fluorescence plate reader analysis; type: functional; conditions: NCI-H292, 48 h
[2] = Inhibition of mitochondrial F0F1-ATPase (unknown origin); set-up: species or system Homo sapiens
PANC-1 = assay: Anticancer activity against human PANC-1 cells assessed as reduction in cell viability by measuring ATP level incubated for 24 hrs by CellTiter-Glo assay; type: functional, cell-based; conditions: PANC-1, 24 h
K562 [3] = assay: Antiproliferative activity against human K562 cells assessed as reduction in cell viability incubated for 72 hrs by MTT assay; type: functional, cell-based; conditions: K562, 72 h
HCT-116 [4] = assay: Antiproliferative activity against human HCT-116 cells assessed as reduction in cell viability incubated for 72 hrs by MTT assay; type: functional, cell-based; conditions: HCT-116, 72 h
K562 [5] = assay: Antitumor activity against human K562 cells assessed as reduction in cell viability incubated for 72 hrs by MTT assay; type: functional, cell-based; conditions: K562, 72 h
HCT-116 [6] = assay: Antitumor activity against human HCT-116 cells assessed as reduction in cell viability incubated for 72 hrs by MTT assay; type: functional, cell-based; conditions: HCT-116, 72 h
[7] = Inhibition of bovine heart mitochondrial F0F1-ATP synthase F0 domain assessed as reduction in rate of NADH oxidation for 30 mins by colorimetric assay; type: mitochondria, Bos taurus, Mitochondria
DU-145 [8] = assay: Antiproliferative activity against human DU-145 cells assessed as reduction in cell viability incubated for 3 days by rhodanile-blue dye based microplate reader analysis; type: functional; conditions: DU-145, 72 h
DU-145 [9] = assay: Antiproliferative activity against human DU-145 cells assessed as reduction in cell viability preincubated with PrSCs cells for 2 days followed by co-culture with DU-145 for 3 days by rhodanile-blue dye based microplate reader analysis; type: functional
[10] = Acute toxicity in mouse assessed as maximum tolerated dose; conditions: in vivo

CC[C@@H](O)C[C@@H]1O[C@@]2(CC[C@@H]1C)C[C@H]1C[C@H](CC[C@@H](CC)/C=C/C=C/CCC[C@@](C)(O)[C@H](O)C[C@H](O)C[C@@H](O)[C@@H](C)[C@H](O)[C@@H](CC)/C=C/C(=O)O1)O2
IC50 [1]: 1000 nM
IC50 (HeLa): 8200 nM
IC50 (HL-60): 5800 nM

COC[C@@H](C[C@H]1O[C@@](O)([C@H](O)[C@@H]2C[C@H](OC)[C@@H](O)CC/C=C(C)/C=C/[C@@H](O[C@@H]3O[C@@H](C)[C@H](OC)[C@@H](O)[C@@H]3O)[C@H](C)/C=C(C)/C=C(C)/C=C(\C)C(=O)O2)[C@H](C)[C@@H](O)[C@H]1C)O[C@H]1C[C@](C)(O)[C@@H](O[C@H]2C[C@@H](OC)[C@H](O)[C@@H](C)O2)[C@H](C)O1
IC50 (NCI-H292): 32 nM
IC50 [2]: 700 nM

CC[C@](C)(NC(=O)[C@H](CC(C)C)NC(=O)[C@H](C)NC(=O)C(C)(C)NC(=O)[C@@H]1CCCCN1C(=O)C(C)(C)NC(=O)C(C)(C)NC(=O)CNC(=O)CCNC(=O)[C@H](CC(C)C)NC(=O)C(C)(C)NC(=O)C(C)(C)NC(=O)[C@@H]1CCCCN1C(=O)C(C)(C)NC(=O)[C@@H]1CCCCN1C(C)=O)C(=O)N[C@@H](CC(C)C)C[N+]1=C2CCCN2CCC1 (Ac-[Pip][Aib][Pip][Aib][Aib]L[βAla]G[Aib][Aib][Pip][Aib]AL[Iva]-X4)
IC50 (PANC-1): 52 nM

CC[C@H]1/C=C/C=C/C[C@@H](C)[C@H](O)[C@@](C)(O)C(=O)[C@@H](C)[C@H](O)[C@@H](C)C(=O)[C@@H](C)[C@H](O)[C@@H](C)/C=C/C(=O)O[C@@H]2[C@H](C)[C@H](CC1)O[C@]1(CC[C@H](C)[C@H](C[C@@H](C)O)O1)[C@H]2C [OLIGOMYCIN]
IC50 (K562 [3]): 200 nM
IC50 (HCT-116 [4]): 900 nM
IC50 (K562 [5]): 200 nM
IC50 (HCT-116 [6]): 1000 nM

CCC(=O)C[C@H](O)C[C@@H](C)C[C@H](NC(=O)[C@@H]1C[C@H](C)CN1C(=O)/C=C/[C@H](C)CC)C(=O)N[C@H](C(=O)NC(C)(C)C(=O)N[C@@H](CC(C)C)C(=O)N[C@@H](CC(C)C)C(=O)NC(C)(C)C(=O)NC(C)(C)C(=O)NCCC(=O)N[C@@H](C)CN(C)C)[C@H](O)C(C)C (X1-[Pro(4S-Me)][X2][Leu(3R-OH)][Aib]LL[Aib][Aib][βAla]-{NH((S)CH(Me)CH2NMe2)})
IC50 [7]: 2.8 µg/mL (≈ 2.3 µM)
IC50 (DU-145 [8]): > 1 µg/mL
IC50 (DU-145 [9]): 0.045 µg/mL (≈ 0.0369 µM)
MTD [10]: 2.5 mg/kg
